Source: patent US4778799A, “Synergistic combination of flupirtin and non-steroidal antiphlogistic” (priority 1985, dated 1988)
Where a name gives a salt, the structure may show the parent alone. Read-outs that look alike come from different tables or passages of the source.

Legend:
[1] = antiphlogistic alone, per os, mouse; cited from earlier work
[2] = Acetic Acid-Writhing Test according to Koster et al., analgetic activity, per os; assay type: in vivo, white mouse (NMRI-Mouse); set-up: ED50: unit: mg/kg; settings: for ED50: substance alone, 30 minutes after giving, linear regression; for factor for the increase in activity of the analgetic action in combination with Flupirtin: compared to analgetic side activity component of the pure antiphlogistic; for minimal effective dose: read-out: lowest analgetically effective dosage; for inhibition in vivo at 3 mg/kg: 3.0 mg/kg per os; for inhibition in vivo at 5 mg/kg: 5.0 mg/kg per os; for inhibition in vivo at 6 mg/kg: 6.0 mg/kg per os; for inhibition in vivo at 10 mg/kg: 10.0 mg/kg per os
Procedure: These investigations were carried out in the Acetic Acid Test (Writhing Test) on the white mouse.
Writhing According to Koster et al; Fed.
(§1) Animal: White Mouse (NMRI-Mouse); Application: per os
Writhing Test According to Koster et al.: Fed.
as §1
The pain reaction is expressed as a characteristic stretching of the animals ("writhing syndrome") which persists in irregular time intervals for a long period of time after the injection of the acetic acid. The dosage dependent suppression of the frequency of the stretching motion compared to an untreated control group is expressed in percent as analgetic effect. The evaluation is carried out by determination of the ED50 (Method of Linear Regression).
The acetic acid test is marked by the fact that not only is there detectable the effect of strong, central acting analgetics but also preponderantly peripherally acting analgetics-antipyretics and antiphlogistically active pharmaceuticals such as phenyl butazone, Indometacin and others. Therewith the effect in this procedure refers to a peripheral component of the analgesic.

[3] = Ulcerogenic effect (stomach mucosa erosion) 24 hours after single oral dispensation; assay type: in vivo, albino rat (Sprague-Dawley); settings: 24 mg/kg Diclofenac alone per os
Procedure: Testing of Ulcerogenic Effect Relying On the Method of Jahn and Adrian (Arzneimittelforschung, Volume 19 (1969) pages 36-52)
The experimental animals are male albino rats which are maintained under the usual conditions at 21°-22° C. After 48 hours of qualified feeding the test materials were dispensed perorally an increasing dosages. The animals were killed 24 hours later and the stomachs investigated for ulcerogenic changes according to the method of Munchow, Arzneimittelforschung, Volume 4 (1954), pages 341-344. (The size of the ulcers formed is measured are classified according to Munchow.)

[4] = Bradykinin-Edema Test, antiphlogistic activity, per os; assay type: in vivo, albino rat (Sprague-Dawley); settings: alone; for ED50: per os, printed in words: no ED50 defineable
Procedure: Bradykinin-Edema-Test Relying On and Modification of the Method of
Morsdorf et al (Arch. int. Pharmacodyn. 192,111-127 (1971). Animal:
Albino-rat (Sprague-Dawley):
Relying on the modification of the method of Morsdorf et al (Arch. int. Pharmacodyn. Volume 192, pages 111-127 (1971)) male rats received subplantarly in the right hind paw an injection of a 1% carrageenin solution (Carrageenin, Type IV, Sigma C-3889). One hour and four hours later there was determined the volume of the paw. To measure the volume there was used a volume meter (Rhema-Labortechnik Company, D-6238 Hofheim, Type 2060). Directly after the first measurement the test substance was dispensed by means of a gullet stomach catheter. There was calculated the increase in the swelling of the paw in the second measurement compared to the first measurement in absolute values (ml). The evaluation included the determination of the percent average value of the difference of the edema volumes one and four hours after receiving the inflammatory solution. The edema inhibiting action was calculated in percent from the edema volume measured by water displacement in comparison to the edema volume of the untreated inflammed control group.
As the single change in comparison to the Carrageenin-Edema Test in place of Carrageenin there was injected subplantarly Bradykinin (Sigma B 3259) 0.01 mg/animal in 0.1 ml of a 0.9% sodium chloride solution.

[5] = Randall-Selitto Test, inflammation pain, per os; assay type: in vivo, albino rat (Sprague-Dawley); settings: for ED50: Rattus norvegicus, po, 0.5 h
Procedure: Randall-Selitto-Test According to Randall, Selitto, Arch. int.
Animal: Albino-Rat (Sprague-Dawley); Application: per os
Sucker, Fuchs, Speiser, Pharmazeutische Technologie, Thieme-Verlag, Stuttgart, 1978. Short Description of the Pharmacological Test Methods Mentioned in the Application Randall-Selitto-Test (Inflammation Pain on the Rat)
In accordance with the method of Randall and Selitto (L. O. Randall, J. J. Selitto, Arch. int. Pharmacodyn., Volume 111, pages 409-418, 1957) rats were injected subplantarly with […] of a 20% (in dimineralized water) brewer's yeast suspension in the right hind paw. 21/2 hours later the test materials were dispensed and 30 minutes later the swelling pain measured with an Algesiemeter as pressure (in grams) on the inflamed paw (apparatus of Ugo Basile, Milan, Italy). As criteria there are considered the defensive reaction of the animals drawing the paw away and/or freeing themselves from the grip of the experimenters. The effect of the material was determined from the increase of the swelling pain compared to the untreated control group. The experimental procedure different from the original method in that the materials were applied 21/2 hours after the setting of edema and not simultaneously therewith. In this way there should be prevented the development of edema, being checked by a possible antiphlogistic action and the analgesy superimposed or simulated.
The ED50 was determined by means of the method of linear regression.

[6] = Mus musculus, po, 0.5 h, per os
[7] = Mus musculus, po, read-out: Activity in %
[8] = alone, per os, 30 minutes after giving, linear regression, read-out: ED50
[9] = Mus musculus, po, 0.5 h, per os, read-out: ED50
[10] = Mus musculus, po, alone, 4.0 mg/kg per os, read-out: Activity in %

CC(=O)Oc1ccccc1C(=O)O [Acetylsalicylic Acid, acetylsalicylic acid]
LD50 [1]: 815 mg/kg | ED50 [2, 6]: 149 mg/kg | inhibition in vivo at 25 mg/kg [2, 7]: 11% | inhibition in vivo at 50 mg/kg [2, 7]: 30.1% | inhibition in vivo at 75 mg/kg [2, 7]: 39% | inhibition in vivo at 100 mg/kg [2, 7]: 41.1% | inhibition in vivo at 150 mg/kg [2, 7]: 43.2% | inhibition in vivo at 200 mg/kg [2, 7]: 59.6% | inhibition in vivo at 400 mg/kg [2, 7]: 71.2% | factor for the increase in activity of the analgetic action in combination with Flupirtin [2]: 2-15

O=C(O)Cc1ccccc1Nc1c(Cl)cccc1Cl [Diclofenac]
ulcerogenic effect (stomach mucosa erosion) [3]: erosion of the stomach mucosa | Activity in % (- = inhibiting) ([4]; 1.0 mg/kg per os): +2.9% | Activity in % (- = inhibiting) ([4]; 3.0 mg/kg per os): +8.6% | Activity in % (- = inhibiting) ([4]; 9.0 mg/kg per os): -31.4% | Activity in % (- = inhibiting) ([4]; 27.0 mg/kg per os): -45.7% | ED50 [4]: No ED50 | ED50 [5, 8]: 2.95 mg/kg | Activity in % ([5]; alone, 1.0 mg/kg per os): 20.99% | Activity in % ([5]; alone, 3.0 mg/kg per os): 32.60% | Activity in % ([5]; alone, 10.0 mg/kg per os): 100.55% | Activity in % ([5]; alone, 30.0 mg/kg per os): 135.36% | ED50 [2, 6]: 12 mg/kg | inhibition in vivo at 3.9 mg/kg [2, 7]: 33.3% | inhibition in vivo at 7.8 mg/kg [2, 7]: 50% | inhibition in vivo at 15.6 mg/kg [2, 7]: 45.8% | inhibition in vivo at 31.25 mg/kg [2, 7]: 66% | inhibition in vivo at 62.5 mg/kg [2, 7]: 67.4% | inhibition in vivo at 125 mg/kg [2, 7]: 91.7% | minimal effective dose ([2]; Mus musculus, po): 3.9 mg/kg | ED50 ([2]; per os, 30 min): 12.1 mg/kg

CCOC(=O)Nc1ccc(NCc2ccc(F)cc2)nc1N [Flupirtin (Gluconate)]
ED50 [2, 6]: 43.9 mg/kg | inhibition in vivo at 0.56 mg/kg [2, 7]: 19.2% | inhibition in vivo at 1.12 mg/kg [2, 7]: 28% | inhibition in vivo at 2.24 mg/kg [2, 7]: 37.6% | inhibition in vivo at 4.47 mg/kg [2, 7]: 46.4% | inhibition in vivo at 8.93 mg/kg [2, 7]: 38.4% | inhibition in vivo at 17.85 mg/kg [2, 7]: 22.4% | inhibition in vivo at 35.7 mg/kg [2, 7]: 61.6%

CCOC(=O)Nc1ccc(NCc2ccc(F)cc2)nc1N [Flupirtin (Hydrochloride)]
Activity in % (- = inhibiting) ([4]; 5.0 mg/kg per os): +4.6% | Activity in % (- = inhibiting) ([4]; 10.0 mg/kg per os): -25.0% | Activity in % (- = inhibiting) ([4]; 20.0 mg/kg per os): -13.6% | Activity in % (- = inhibiting) ([4]; 30.0 mg/kg per os): -2.3% | ED50 [4]: no ED50 | ED50 [5]: 30.9 mg/kg | Activity in % ([5]; alone, 10.0 mg/kg per os): -8.3% | Activity in % ([5]; alone, 20.0 mg/kg per os): 23.2% | Activity in % ([5]; alone, 30.0 mg/kg per os): 45.8% | Activity in % ([5]; alone, 40.0 mg/kg per os): 67.5%

CCOC(=O)Nc1ccc(NCc2ccc(F)cc2)nc1N [Flupirtin, 2-amino-3-carbethoxyamino-6-(fluoro-benzylamino)-pyridine]
ED50 [2, 9]: 44 mg/kg | minimal effective dose ([2]; Mus musculus, po, alone, per os): 2.24 mg/kg

COc1ccc2c(c1)c(CC(=O)N[C@@H](C=O)[C@@H](O)[C@H](O)[C@H](O)CO)c(C)n2C(=O)c1ccc(Cl)cc1 [Glucametacin]
factor for the increase in activity of the analgetic action in combination with Flupirtin [2]: 2-15

COc1ccc2c(c1)c(CC(=O)O)c(C)n2C(=O)c1ccc(Cl)cc1 [Indometacin]
ED50 [5, 8]: 2.77 mg/kg | Activity in % ([5]; alone, 1.0 mg/kg per os): 12.3% | Activity in % ([5]; alone, 2.0 mg/kg per os): 22.05% | Activity in % ([5]; alone, 4.0 mg/kg per os): 58.97% | Activity in % ([5]; alone, 8.0 mg/kg per os): 114.87% | Activity in % ([5]; alone, 16.0 mg/kg per os): 127.18% | LD50 [1]: 21 mg/kg | ED50 [2, 6]: 4.3 mg/kg | inhibition in vivo at 2 mg/kg [2, 7]: 17.3% | inhibition in vivo at 4 mg/kg [2, 7]: 50% | inhibition in vivo at 8 mg/kg [2, 7]: 86.3% | inhibition in vivo at 16 mg/kg [2, 7]: 82.1% | factor for the increase in activity of the analgetic action in combination with Flupirtin [2]: 2-15

Cc1cc(NC(=O)C2=C(O)c3ccccc3S(=O)(=O)N2C)no1 [Isoxicam]
ED50 [2, 9]: 6.6 mg/kg | inhibition in vivo at 3 mg/kg ([2]; Mus musculus, po, alone): 10.1% | inhibition in vivo at 4 mg/kg [2, 10]: 30.2% | inhibition in vivo at 5 mg/kg ([2]; Mus musculus, po, alone): 36.7% | inhibition in vivo at 6 mg/kg ([2]; Mus musculus, po, alone): 46% | inhibition in vivo at 7 mg/kg ([2]; Mus musculus, po, alone, 7.0 mg/kg per os): 51.1% | inhibition in vivo at 8 mg/kg ([2]; Mus musculus, po, alone, 8.0 mg/kg per os, read-out: Activity in %): 62.6% | inhibition in vivo at 10 mg/kg ([2]; Mus musculus, po, alone): 66.2% | factor for the increase in activity of the analgetic action in combination with Flupirtin [2]: 2-15

COc1ccc2cc([C@H](C)C(=O)O)ccc2c1 [Naproxen]
inhibition in vivo at 0.38 mg/kg ([2]; Mus musculus, po, alone, 0.38 mg/kg per os): 21.7% | inhibition in vivo at 0.75 mg/kg ([2]; Mus musculus, po, alone, 0.75 mg/kg per os): 42% | inhibition in vivo at 1.5 mg/kg ([2]; Mus musculus, po, alone, 1.5 mg/kg per os): 43.4% | inhibition in vivo at 3 mg/kg ([2]; Mus musculus, po, alone): 53.8% | inhibition in vivo at 6 mg/kg ([2]; Mus musculus, po, alone): 70% | inhibition in vivo at 12 mg/kg ([2]; Mus musculus, po, alone, 12.0 mg/kg per os): 74.1% | inhibition in vivo at 24 mg/kg ([2]; Mus musculus, po, alone, 24.0 mg/kg per os): 54.5% | factor for the increase in activity of the analgetic action in combination with Flupirtin [2]: 2-15

CN1C(C(=O)Nc2ccccn2)=C(O)c2ccccc2S1(=O)=O [Piroxicam]
LD50 [1]: 350 mg/kg | ED50 [2, 9]: 3.46 mg/kg | inhibition in vivo at 1 mg/kg ([2]; Mus musculus, po, alone, 1.0 mg/kg per os): 38.2% | inhibition in vivo at 3 mg/kg ([2]; Mus musculus, po, alone): 40% | inhibition in vivo at 4 mg/kg [2, 10]: 53.6% | inhibition in vivo at 5 mg/kg ([2]; Mus musculus, po, alone): 61.8% | inhibition in vivo at 10 mg/kg ([2]; Mus musculus, po, alone): 70.9% | inhibition in vivo at 20 mg/kg ([2]; Mus musculus, po, alone, 20.0 mg/kg per os): 49.1% | factor for the increase in activity of the analgetic action in combination with Flupirtin [2]: 2-15

CC1=C(CC(=O)O)c2cc(F)ccc2/C1=C\c1ccc([S+](C)[O-])cc1 (stereo not drawn) [Sulindac]
ED50 [2, 9]: 2.3 mg/kg | inhibition in vivo at 0.47 mg/kg [2, 7]: 29.6% | inhibition in vivo at 0.94 mg/kg [2, 7]: 44.6% | inhibition in vivo at 1.88 mg/kg [2, 7]: 49.7% | inhibition in vivo at 3.75 mg/kg [2, 7]: 56% | inhibition in vivo at 7.5 mg/kg [2, 7]: 61% | inhibition in vivo at 15 mg/kg [2, 7]: 71.1% | inhibition in vivo at 30 mg/kg [2, 7]: 72.3% | factor for the increase in activity of the analgetic action in combination with Flupirtin [2]: 2-15
